# Tests used:
# [1] = test system: cultured human mast cells (CHMC); experiment: CHMC low cell density IgE activation: tryptase and LTC4 assays; assay type: cell-based; details: Homo sapiens, Mast cell, Low Density CHMC, anti-IgE activation, tryptase readout; read-out: CHMC anti-IgE Tryptase
# How it was run: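 Degranulation measured after 30 min anti-IgE challenge at 37° C of CHMC plated at 1000-1500 cells/well following 1 h preincubation. Readouts: LTC4 by ELISA on donor-specific diluted supernatants, and tryptase activity from a 30 min room-temperature substrate reaction.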
# [2] = test system: cultured human mast cells (CHMC); experiment: CHMC high cell density IgE activation: degranulation (hexos, tryptase, histamine), leukotriene (LTC4) and cytokine (TNFalpha, IL-13) assays; assay type: cell-based; details: anti-IgE activation
# How it was run: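 IgE-sensitized CHMC at 1-2×10^6 cells/ml in MT buffer were pretreated with compound for 1 h at 37 °C (0.5% DMSO final), then stimulated with anti-IgE for 1 h. Tryptase was measured in 1:500-diluted supernatant. Pellets were re-incubated for 7 h with compound in CM media, and supernatants were assayed by ELISA.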
# [3] = test system: basophils in whole human peripheral blood; experiment: Basophil IgE activation: histamine release assay; assay type: cell-based; details: Homo sapiens, anti-IgE activation
# Method: (§1) The basophil activation assay was carried out using whole human peripheral blood from donors allergic to dust mites with the majority of the red blood cells removed by dextran sedimentation. Human peripheral blood was mixed 1:1 with 3% dextran T500 and RBCs were allowed to settle for 20-25 min. The upper fraction was diluted with 3 volumes of D-PBS and cells were spun down for 10 min at 1500 rpm, RT. Supernatant was aspirated and cells were washed in an equal volume MT-buffer. Finally, cells were resuspended in MT-buffer containing 0.5% DMSO in the original blood volume. 80 uL cells were mixed with 20 uL compound in the presence of 0.5% DMSO, in triplicate, in a V-bottom 96-well tissue culture plate. A dose range of 8 compound concentrations was tested resulting in a 10-point dose response curve including maximum (stimulated) and minimum (unstimulated) response. […] The cells were stimulated for 30 minutes at 37° C., 5% CO2. The plate was spun for 10 min at 1500 rpm at room temperature and 80 uL the supernatant was harvested for histamine content analysis using the histamine ELISA kit supplied by Immunotech. The ELISA was performed according to supplier's instructions.
# [4] = test system: basophils in whole human peripheral blood; experiment: Basophil dustmite activation: histamine release assay; assay type: cell-based; details: read-out: Basophils Dust mite Histmine IC50
# Method: as §1, with “The plate was spun for 10 min at 1500 rpm at room temperature and 80 uL the supernatant was harvested for histamine content analysis using the histamine ELISA kit supplied by Immunotech.” left out
# [5] = test system: cultured human mast cells (CHMC); experiment: CHMC low cell density ionomycin activation: tryptase assay; assay type: cell-based; details: Homo sapiens, Mast cell, Low Density CHMC, ionomycin activation, tryptase readout; read-out: CHMC Ionomycin Tryptase
# [6] = test system: basophils in whole human peripheral blood; experiment: Basophil ionomycin activation: histamine release assay; assay type: cell-based; details: Homo sapiens
# Method: Assays for ionomycin-induced basophil cell degranulation were carried out as described for the Basophil IgE or Dustmite Activation Assay (Section 6.4.6, supra), with the exception that following incubation with compound, cells were stimulated with 20 μl of 2 μM ionomycin.
# [7] = in vitro chromosomal aberration assay; assay type: cell-based
# [8] = assay type: in vivo; details: rat, oral doses of 50, 150 and 300 mg/kg given for 32 days
# [9] = Oral bioavailability / pharmacokinetics in rats; assay type: in vivo; details: rat, in vivo
# Method: Over 50 2,4-pyrimidinediamine compounds of the invention were tested for oral bioavailability. For the study, compounds were dissolved in various vehicles (e.g. PEG 400 solution and CMC suspension) for intravenous and oral dosing in the rats. Following administration of the drug, plasma samples were obtained and extracted. The plasma concentrations of the compounds were determined by high performance liquid chromatography/tandem mass spectrometry (LC/MS/MS) methods. Pharmacokinetic analyses were performed based on the plasma concentration data. The pharmacokinetic parameters of interest include Clearance (CL), Volume of distribution at steady-state (Vss), terminal half-life (t1/2), and oral bioavailability (% F).
# Jurkat cells = experiment: Jurkat toxicity: Cell Titer Glo assay; assay type: cell-based; details: Homo sapiens, 18 hours
# Method: Seed 50 μl cells (1×10^6/ml) into each well containing 50 μl compound. […] Shake plates for 1 minute to mix cells and compound. Incubate plates at 37° C. […] Next day, harvest 50 μl cells from each well, add to 50 μl Cell Titer Glo reagent ([…]). Shake plates for 1 minute. Read on luminometer.
# B-cell line BJAB = experiment: BJAB toxicity: Cell Titer Glo assay; assay type: cell-based; details: Homo sapiens, 18 hours
# Method: Seed 50 μl cells (1×10^6/ml) into each well containing 50 μl compound. The final vehicle concentration is 0.5% DMSO, 1.5% MeOH. Shake plates for 1 minute to mix cells and compound. Incubate plates at 37° C. (5% CO2) for 18 hours. Next day, harvest 50 μl cells from each well, add to 50 μl Cell Titer Glo reagent ([…]). Shake plates for 1 minute. Read on luminometer.
# [10] = IL-13, read-out: CHMC high density IL-13
# [11] = TNF-alpha, read-out: CHMC high density TNF-alpha
# [12] = hexosaminidase release, read-out: CHMC high density hexos
# [13] = histamine release, read-out: CHMC high density histamine
# [14] = tryptase release, read-out: CHMC high density tryptase
# [15] = LTC4, read-out: CHMC high density LTC4
IC50 [1] [nM],"IC50 [2, 10] [nM]","IC50 [2, 11] [nM]","IC50 [2, 12] [nM]","IC50 [2, 13] [nM]","IC50 [2, 14] [nM]",IC50 [5] [nM],"IC50 [2, 15] [nM]",SMILES,IC50 [3] [nM],IC50 [4] [nM],IC50 [6] [nM],clastogenic potential [7],tolerability [8],metabolic stability in pharmacokinetics studies [9],IC50 (Jurkat cells) [nM],IC50 (B-cell line BJAB) [nM]
138,> 10000,1880,1110,1330,1230,> 10000,,"O=C(NCCO)c1cc2cc(Nc3ncc(F)c(Nc4cccc(O)c4)n3)ccc2o1 [Compound R926497, 5-Fluoro-N4-(3-hydroxyphenyl)-N2-[2-(N-2-hydroxyethylamino)carbonylbenzofuran-5-yl]-2,4-pyrimidinediamine]",270,205,> 10000,,,,,
132,1780,2250,577,586,642,> 10000,118,"Cc1cc(Nc2ncc(F)c(Nc3cccc(O)c3)n2)cc(Cl)c1O [Compound R940233, N2-(3-Chloro-4-hydroxy-5-methylphenyl)-5-fluoro-N4-(3-hydroxyphenyl)-2,4-pyrimidinediamine]",,,,,,,> 4330,> 4330
930,,> 2000,647,,1210,> 10000,< 220,"OCCOc1cccc(Nc2ncc(F)c(Nc3cccc(OCCO)c3)n2)c1 [Compound R935075, N2,N4-Bis[3-(2-hydroxyethoxy)phenyl]-5-fluoro-2,4-pyrimidinediamine]",,,,,,,> 4330,> 4330

SMILES,IC50 [1] [nM],"IC50 [2, 10] [nM]","IC50 [2, 11] [nM]","IC50 [2, 12] [nM]","IC50 [2, 13] [nM]","IC50 [2, 14] [nM]",IC50 [5] [nM],"IC50 [2, 15] [nM]",IC50 [3] [nM],IC50 [4] [nM],IC50 [6] [nM],clastogenic potential [7],tolerability [8],metabolic stability in pharmacokinetics studies [9],IC50 (Jurkat cells) [nM],IC50 (B-cell line BJAB) [nM]
"Nc1cccc(Nc2ncc(F)c(Nc3cccc(N)c3)n2)c1 [Compound R921302, N2,N4-Bis(3-aminophenyl)-5-fluoro-2,4-pyrimidinediamine]",,1670,1170,682,1590,795,,514,190,,> 10000,not clastogenic,well tolerated,most metabolically stable compound,,
